Measurements from ChEMBL document CHEMBL4303084, “Identification of antiviral drug candidates against SARS-CoV-2 from FDA-approved drugs” (2020).

Assays:
[1] = Cell viability measured by CellTiter-Glo assay in Vero cells at MOI 0.05 after 72hr; conditions: chlorocebus sabaeus, Vero cells
SARS-CoV-2 = experiment: microbe, parasite or virus in culture; assay type: functional, organism-based, Chlorocebus sabaeus; conditions: Severe acute respiratory syndrome coronavirus 2, Vero, 24 h
[2] = Selectivity index for antiviral vs cytotoxic activity in Vero cells (CC50/IC50); conditions: monkey

Q: For `CCCCCC(=O)O[C@]1(C(C)=O)CC[C@H]2[C@@H]3CCC4=CC(=O)CC[C@]4(C)[C@H]3CC[C@@]21C` [HYDROXYPROGESTERONE CAPROATE], which CC50 at 72 h [1] is on record?
A: > 50 µM

Q: And the IC50 (SARS-CoV-2)?
A: 6.3 µM

Q: What about the selectivity ratio ([2]; Vero cells) of the same molecule?
A: 7.93

Q: Which CC50 at 72 h [1] does the source give for `CC(C)(C)c1cc(C(C)(C)C)c(NC(=O)c2c[nH]c3ccccc3c2=O)cc1O` [IVACAFTOR] here?
A: 27.3 µM

Q: What about the IC50 (SARS-CoV-2) of the same molecule?
A: 6.57 µM

Q: And the selectivity ratio ([2]; Vero cells)?
A: 3.76

Q: With `CC(=O)O[C@H]1C[C@H](O[C@H]2[C@@H](O)C[C@H](O[C@H]3[C@@H](O)C[C@H](O[C@H]4CC[C@@]5(C)[C@H](CC[C@@H]6[C@@H]5C[C@@H](O)[C@]5(C)[C@@H](C7=CC(=O)OC7)CC[C@]65O)C4)O[C@@H]3C)O[C@@H]2C)O[C@H](C)[C@H]1O[C@@H]1O[C@H](CO)[C@@H](O)[C@H](O)[C@H]1O` [LANATOSIDE C] as the molecule, how does the CC50 at 72 h [1] read?
A: > 50 µM

Q: And the IC50 (SARS-CoV-2)?
A: > 50 µM

Q: And the selectivity ratio ([2]; Vero cells)?
A: 1

Q: With `CN(C)C(=O)C(CCN1CCC(O)(c2ccc(Cl)cc2)CC1)(c1ccccc1)c1ccccc1` [LOPERAMIDE] as the molecule, how does the CC50 at 72 h [1] read?
A: 29.3 µM

Q: Which CC50 at 72 h [1] does the source give for `Cc1cccc(C)c1OCC(=O)N[C@@H](Cc1ccccc1)[C@@H](O)C[C@H](Cc1ccccc1)NC(=O)[C@H](C(C)C)N1CCCNC1=O` [LOPINAVIR] here?
A: > 50 µM

Q: What about the IC50 (SARS-CoV-2) of the same molecule?
A: 9.12 µM

Q: Which CC50 at 72 h [1] does the source give for `CCCCCCO[C@@H](C)c1cccc(-c2csc(NC(=O)c3cc(Cl)c(/C=C(\C)C(=O)O)c(Cl)c3)n2)c1OC` [LUSUTROMBOPAG] here?
A: 14.6 µM

Q: And the IC50 (SARS-CoV-2)?
A: 3.78 µM

Q: And the selectivity ratio ([2]; Vero cells)?
A: 3.87

Q: With `OC(c1cc(C(F)(F)F)nc2c(C(F)(F)F)cccc12)C1CCCCN1` (configuration not stated) [MEFLOQUINE] as the molecule, how does the CC50 at 72 h [1] read?
A: 14 µM

Q: And the IC50 (SARS-CoV-2)?
A: 4.33 µM

Q: And the selectivity ratio ([2]; Vero cells)?
A: 3.22

Q: With `c1ccc2c(c1)Sc1ccccc1N2CC1CN2CCC1CC2` (configuration not stated) [MEQUITAZINE] as the molecule, how does the CC50 at 72 h [1] read?
A: 27.3 µM

Q: What about the IC50 (SARS-CoV-2) of the same molecule?
A: 7.28 µM

Q: And the selectivity ratio ([2]; Vero cells)?
A: 3.76

Q: Which CC50 at 72 h [1] does the source give for `O=C(Nc1ccc([N+](=O)[O-])cc1Cl)c1cc(Cl)ccc1O` [NICLOSAMIDE] here?
A: > 50 µM

Q: With `CC(C)=CCc1c2c(c3occ(-c4ccc(O)cc4)c(=O)c3c1O)C=CC(C)(C)O2` [OSAJIN] as the molecule, how does the CC50 at 72 h [1] read?
A: 11.4 µM

Q: What about the IC50 (SARS-CoV-2) of the same molecule?
A: 3.87 µM

Q: And the selectivity ratio ([2]; Vero cells)?
A: 2.95

Q: What does the source list for `C=CC(=O)Nc1cc(Nc2nccc(-c3cn(C)c4ccccc34)n2)c(OC)cc1N(C)CCN(C)C` [OSIMERTINIB]?
A: CC50 at 72 h [1]: 13.2 µM; IC50 (SARS-CoV-2): 3.26 µM; selectivity ratio ([2]; Vero cells): 4.05

Q: With `C[C@@H]1O[C@@H](O[C@H]2C[C@@H](O)[C@]3(CO)[C@H]4[C@H](O)C[C@]5(C)[C@@H](C6=CC(=O)OC6)CC[C@]5(O)[C@@H]4CC[C@]3(O)C2)[C@H](O)[C@H](O)[C@H]1O` [OUABAIN OCTAHYDRATE] as the molecule, how does the CC50 at 72 h [1] read?
A: > 50 µM

Q: What about the IC50 (SARS-CoV-2) of the same molecule?
A: < 0.097 µM

Q: What about the selectivity ratio ([2]; Vero cells) of the same molecule?
A: 516

Q: For `O=C(Nc1cc(Cl)cc(Cl)c1O)c1c(O)c(Cl)cc(Cl)c1Cl` [OXYCLOZANIDE], which CC50 at 72 h [1] is on record?
A: > 50 µM

Q: What about the IC50 (SARS-CoV-2) of the same molecule?
A: 3.71 µM

Q: Which CC50 at 72 h [1] does the source give for `OC1(c2ccc(Cl)c(C(F)(F)F)c2)CCN(CCCC(c2ccc(F)cc2)c2ccc(F)cc2)CC1` [PENFLURIDOL] here?
A: 8.77 µM

Q: What about the IC50 (SARS-CoV-2) of the same molecule?
A: 5.01 µM

Q: What about the selectivity ratio ([2]; Vero cells) of the same molecule?
A: 1.75

Q: For `C1CCC(C(CC2CCCCN2)C2CCCCC2)CC1` (configuration not stated) [PERHEXILINE], which CC50 at 72 h [1] is on record?
A: 8.67 µM

Q: And the IC50 (SARS-CoV-2)?
A: 6.38 µM

Q: What about the selectivity ratio ([2]; Vero cells) of the same molecule?
A: 1.36

Q: What does the source list for `Nc1ccc(/N=N/c2ccccc2)c(N)n1` [PHENAZOPYRIDINE]?
A: CC50 at 72 h [1]: > 50 µM; IC50 (SARS-CoV-2): 28 µM

Q: With `C[C@@H]1O[C@@H](O[C@@H]2C=C3CC[C@@H]4[C@H](CC[C@]5(C)[C@@H](c6ccc(=O)oc6)CC[C@]45O)[C@@]3(C)CC2)[C@H](O)[C@H](O)[C@H]1O` [PROSCILLARIDIN] as the molecule, how does the CC50 at 72 h [1] read?
A: > 50 µM

Q: What about the IC50 (SARS-CoV-2) of the same molecule?
A: 2.04 µM

Q: And the selectivity ratio ([2]; Vero cells)?
A: 24.5

Q: What does the source list for `CCN(CC)CCCC(C)Nc1c2ccc(Cl)cc2nc2ccc(OC)cc12` (configuration not stated) [QUINACRINE]?
A: CC50 at 72 h [1]: 14.7 µM; IC50 (SARS-CoV-2): > 50 µM; selectivity ratio ([2]; vero): 0.29

Q: For `CC[C@@H](C(=O)[C@@H](C)[C@@H](O)[C@H](C)[C@@H]1O[C@@H]([C@@H](CC)C(=O)O)CC[C@@H]1C)[C@H]1O[C@]2(C=C[C@@H](O)[C@]3(CC[C@@](C)([C@H]4CC[C@](O)(CC)[C@H](C)O4)O3)O2)[C@H](C)C[C@@H]1C` [SALINOMYCIN], which CC50 at 72 h [1] is on record?
A: > 50 µM

Q: And the IC50 (SARS-CoV-2)?
A: 0.24 µM

Q: What about the selectivity ratio ([2]; Vero cells) of the same molecule?
A: 211

Q: Which CC50 at 72 h [1] does the source give for `CSc1ccc2c(c1)N(CCC1CCCCN1C)c1ccccc1S2` (configuration not stated) [THIORIDAZINE] here?
A: 16 µM

Q: What about the IC50 (SARS-CoV-2) of the same molecule?
A: 6.69 µM

Q: And the selectivity ratio ([2]; Vero cells)?
A: 2.39

Q: With `CCN(CC)CCOc1ccc2c(c1)C(=O)c1cc(OCCN(CC)CC)ccc1-2` [TILORONE] as the molecule, how does the CC50 at 72 h [1] read?
A: 19.7 µM

Q: What about the IC50 (SARS-CoV-2) of the same molecule?
A: 4.09 µM

Q: And the selectivity ratio ([2]; Vero cells)?
A: 4.81

Q: Which results are given for `CN(C)CCOc1ccc(/C(=C(/CCCl)c2ccccc2)c2ccccc2)cc1` [TOREMIFENE]?
A: CC50 at 72 h [1]: 10.1 µM; IC50 (SARS-CoV-2): 3.58 µM; selectivity ratio ([2]; Vero cells): 2.82

Q: With `CCN(CC)CCOc1ccc(C(O)(Cc2ccc(Cl)cc2)c2ccc(C)cc2)cc1` (configuration not stated) [TRIPARANOL] as the molecule, how does the CC50 at 72 h [1] read?
A: 14.7 µM

Q: And the IC50 (SARS-CoV-2)?
A: 7.05 µM

Q: What about the selectivity ratio ([2]; Vero cells) of the same molecule?
A: 2.09
